# Results published in US9828381B2, “Substituted pyrazolopyrimidines and method of use” (AbbVie Deutschland GmbH & Co. KG, priority 2015, dated 2017).
# Target: GABA-B receptor (Rattus norvegicus (Rat), UniProt O88871+Q9Z0U4)
# Experiment: [35S]GTPgS binding assay, rat cortical membranes, in presence of EC25 GABA
# Format: biochemical
# Details: rat brain cortex membranes; in presence of 1 μM GABA (EC25); positive allosteric modulation
# Description: Preparation of Rat Brain Membranes for Native Receptor Assays
# Membranes from rat brain cortex were prepared as described in detail by Olpe et al. and stored at concentrations of 1.66 mg/mL protein at −80° C. until required. (Olpe, H.-R, et al. Eur J Pharmacol 1990; 187: 27-38).
# [^35S] GTPgS Binding Assay
# The composition of the assay mixtures [in a final volume of 200 μL in 96-well U-bottom plates (Greiner) was as follows: 50 mM Tris-HCl buffer, pH 7.7, 10 mM MgCl2, 0.2 mM EGTA, 2 mM CaCl2, 100 mM NaCl, 20 µM guanosine 5′-diphosphate (Sigma), 0.3 nM [^35S]GTPgS (1250 Ci/mmol (PerkinElmer)), and the test compounds at increasing concentrations (from 10 nM up to […]), […] of rat cortical membranes, and a concentration of […], that has been observed in previous experiments to correspond to the EC25, a concentration that gives 25% of the maximal response of GABA. The samples were incubated at room temperature for 60 minutes on a shaker. The incubation was stopped by rapid vacuum filtration over glass-fiber filter plates (UniFilter-96 well, GF/B membrane plates, PerkinElmer) using a 96-well plate harvester (TOMTEK© Harvester). The UniFilter plate was washed five times with ice-cold wash buffer (50 mM Tris-HCl buffer, pH 7.7, 10 mM MgCl2, and 100 mM NaCl. After filtration the plate was dried for 90 minutes at 55° C. The plates were closed on the bottom with black sealing membranes, and liquid scintillation cocktail (35 μL, Betaplate Scint, PerkinElmer) was added to each well. After sealing the top of the plate, an additional incubation step of 90 minutes at room temperature followed before measuring the plate. The amount of membrane-bound [^35S]GTPgS was measured using a 96-well plate reader (Microbeta®, PerkinElmer). Nonspecific binding was measured in the presence of unlabeled 10 μM of GTPgS (Millipore) and without GABA. Basal binding was measured in the absence of 1 μM GABA, and maximal binding was measured in the presence of GABA using 1 mM GABA concentrations.
# Data analysis. The concentration-response curves of compounds of the present disclosure in the presence of EC25 of GABA-B receptor agonist were generated using the GraphPad Prism® program (GraphPad Software, San Diego, Calif.). Data was normalized using basal binding as 0% and maximal binding as 100%. The curves were fitted by nonlinear regression allowing determination of EC50 values from sigmoidal dose-response curves. Each curve was performed using triplicate sample per date point and 10 concentrations.
# Sequence of GABA-B receptor (Q9Z0U4 17-960): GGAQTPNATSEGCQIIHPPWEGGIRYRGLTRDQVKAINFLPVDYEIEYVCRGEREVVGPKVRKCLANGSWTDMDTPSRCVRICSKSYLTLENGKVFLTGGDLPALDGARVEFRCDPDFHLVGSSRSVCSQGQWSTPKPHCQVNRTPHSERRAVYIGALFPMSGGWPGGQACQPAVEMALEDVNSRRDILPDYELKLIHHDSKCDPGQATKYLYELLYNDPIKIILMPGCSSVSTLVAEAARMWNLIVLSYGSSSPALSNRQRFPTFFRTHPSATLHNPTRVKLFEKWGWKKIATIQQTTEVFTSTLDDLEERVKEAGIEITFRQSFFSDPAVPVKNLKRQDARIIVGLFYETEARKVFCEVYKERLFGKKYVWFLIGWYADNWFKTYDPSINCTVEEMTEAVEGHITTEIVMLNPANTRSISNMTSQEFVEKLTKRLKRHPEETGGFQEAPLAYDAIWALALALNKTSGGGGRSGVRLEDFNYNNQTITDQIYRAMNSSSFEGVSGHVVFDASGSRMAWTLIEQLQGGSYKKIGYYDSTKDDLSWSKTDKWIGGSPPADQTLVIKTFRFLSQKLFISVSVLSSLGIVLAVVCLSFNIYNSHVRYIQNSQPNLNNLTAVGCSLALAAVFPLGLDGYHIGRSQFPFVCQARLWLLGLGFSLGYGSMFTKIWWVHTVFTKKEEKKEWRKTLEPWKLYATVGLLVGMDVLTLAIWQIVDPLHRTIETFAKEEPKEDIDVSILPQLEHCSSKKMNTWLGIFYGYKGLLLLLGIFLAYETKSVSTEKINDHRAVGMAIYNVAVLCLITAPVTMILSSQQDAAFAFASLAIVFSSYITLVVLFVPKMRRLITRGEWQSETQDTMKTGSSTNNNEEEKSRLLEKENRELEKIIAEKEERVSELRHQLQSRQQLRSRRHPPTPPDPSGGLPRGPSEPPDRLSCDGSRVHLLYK
# Sequence of GABA-B receptor (O88871 41-940): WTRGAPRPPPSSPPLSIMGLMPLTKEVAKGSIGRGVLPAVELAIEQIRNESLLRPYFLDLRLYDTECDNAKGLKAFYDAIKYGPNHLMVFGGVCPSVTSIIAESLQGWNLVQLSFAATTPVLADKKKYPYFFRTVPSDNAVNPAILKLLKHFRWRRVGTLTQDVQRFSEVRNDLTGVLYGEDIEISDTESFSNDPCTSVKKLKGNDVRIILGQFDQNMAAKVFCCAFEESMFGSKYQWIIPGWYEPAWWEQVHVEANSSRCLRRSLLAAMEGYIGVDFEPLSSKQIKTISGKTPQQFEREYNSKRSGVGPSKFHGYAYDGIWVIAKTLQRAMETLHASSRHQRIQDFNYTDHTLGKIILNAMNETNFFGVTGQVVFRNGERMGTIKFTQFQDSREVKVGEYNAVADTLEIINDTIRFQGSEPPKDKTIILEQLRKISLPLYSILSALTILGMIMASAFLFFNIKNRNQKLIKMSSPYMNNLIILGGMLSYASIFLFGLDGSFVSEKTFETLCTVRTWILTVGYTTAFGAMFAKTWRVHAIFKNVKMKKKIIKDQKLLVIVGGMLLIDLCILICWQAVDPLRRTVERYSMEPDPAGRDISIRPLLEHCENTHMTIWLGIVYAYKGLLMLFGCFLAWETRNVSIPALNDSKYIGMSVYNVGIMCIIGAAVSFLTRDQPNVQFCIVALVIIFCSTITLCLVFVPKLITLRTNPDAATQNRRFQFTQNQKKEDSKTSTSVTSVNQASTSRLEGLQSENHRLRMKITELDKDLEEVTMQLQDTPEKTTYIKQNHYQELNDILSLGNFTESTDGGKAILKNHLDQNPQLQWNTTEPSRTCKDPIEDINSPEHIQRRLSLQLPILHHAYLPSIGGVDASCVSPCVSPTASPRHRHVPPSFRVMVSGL
row,Structure (SMILES),EC50
1,"Cc1cc(N2CCCC(CO)C2)n2nc(C(C)c3ccc(Cl)cn3)cc2n1 (stereo not shown) [Example 9-1, (1-{2-[1-(5-chloropyridin-2-yl)ethyl]-5-methylpyrazolo[1,5-a]pyrimidin-7-yl}piperidin-3-yl)methanol]",1540 nM
2,"CCC(c1ccc(Cl)cc1)c1cc2nc(C)cc(N3CCCCC3CCO)n2n1 (stereo not shown) [Example 3-1, 2-(1-{2-[1-(4-chlorophenyl)propyl]-5-methylpyrazolo[1,5-a]pyrimidin-7-yl}piperidin-2-yl)ethanol]",8 nM
3,"CC(=O)N[C@H]1CCN(c2cc(C)nc3cc(C(C)c4ccc(Cl)cn4)nn23)C1 (stereo partly drawn) [Example 9-11, N-[(3S)-1-{2-[1-(5-chloropyridin-2-yl)ethyl]-5-methylpyrazolo[1,5-a]pyrimidin-7-yl}pyrrolidin-3-yl]acetamide]",> 10000 nM
4,"Cc1cc(N2CC[C@H]2C(=O)O)n2nc(C(C)c3ccc(C(F)(F)F)cc3)cc2n1 (stereo partly drawn) [Example 8-10, (2S)-1-(5-methyl-2-{1-[4-(trifluoromethyl)phenyl]ethyl}pyrazolo[1,5-a]pyrimidin-7-yl)azetidine-2-carboxylic acid]",> 10000 nM
5,"Cc1cc(N2CC[C@H]2C(N)=O)n2nc(C(C)c3ccc(C(F)(F)F)cc3)cc2n1 (stereo partly drawn) [Example 8-1, (2S)-1-(5-methyl-2-{1-[4-(trifluoromethyl)phenyl]ethyl}pyrazolo[1,5-a]pyrimidin-7-yl)azetidine-2-carboxamide]",> 10000 nM
6,"Cc1cc(NCC2CC(F)(F)C2)n2nc(C(C)c3ccc(C(F)(F)F)cc3)cc2n1 (stereo not shown) [Example 8-14, N-[(3,3-difluorocyclobutyl)methyl]-5-methyl-2-{1-[4-(trifluoromethyl)phenyl]ethyl}pyrazolo[1,5-a]pyrimidin-7-amine]",593 nM
7,"Cc1cc(N2CCCCC2CCO)n2nc(Cc3cccc(Cl)c3)cc2n1 (stereo not shown) [Example 12-1, 2-{1-[2-(3-chlorobenzyl)-5-methylpyrazolo[1,5-a]pyrimidin-7-yl]piperidin-2-yl}ethanol]",5670 nM
8,"CCCC(c1ccc(Cl)cc1)c1cc2nc(C)cc(N3CCCC(F)(F)C3)n2n1 (stereo not shown) [Example 5-2, 2-[1-(4-chlorophenyl)butyl]-7-(3,3-difluoropiperidin-1-yl)-5-methylpyrazolo[1,5-a]pyrimidine]",7 nM
9,"Cc1cc(N2CCCCC2CO)n2nc(Cc3ccc(Cl)cc3)cc2n1 (stereo not shown) [Example 1-2, {1-[2-(4-chlorobenzyl)-5-methylpyrazolo[1,5-a]pyrimidin-7-yl]piperidin-2-yl}methanol]",1660 nM
10,"Cc1cc(N2CCCC(F)C2)n2nc(C(C)c3ccc(Cl)cc3)cc2n1 (stereo not shown) [Example 2-6, 2-[1-(4-chlorophenyl)ethyl]-7-(3-fluoropiperidin-1-yl)-5-methylpyrazolo[1,5-a]pyrimidine]",242 nM
11,"Cc1cc(N2CCCC(F)(F)C2)n2nc(C(c3ccc(Cl)cc3)C(C)C)cc2n1 (stereo not shown) [Example 4-2, 2-[1-(4-chlorophenyl)-2-methylpropyl]-7-(3,3-difluoropiperidin-1-yl)-5-methylpyrazolo[1,5-a]pyrimidine]",9 nM
12,"Cc1cc(N2CCCCC2CCO)n2nc(C(C)c3ccc(Cl)cc3)cc2n1 (stereo not shown) [Example 2-1, 2-(1-{2-[1-(4-chlorophenyl)ethyl]-5-methylpyrazolo[1,5-a]pyrimidin-7-yl}piperidin-2-yl)ethanol]",118 nM
13,"Cc1cc(N2CCCCC2CO)n2nc(C(C)c3ccc(Cl)cc3)cc2n1 (stereo not shown) [Example 2-5, (1-{2-[1-(4-chlorophenyl)ethyl]-5-methylpyrazolo[1,5-a]pyrimidin-7-yl}piperidin-2-yl)methanol]",146 nM
14,"Cc1cc(N2CCC(F)CC2)n2nc(C(C)c3ccc(Cl)cc3)cc2n1 (stereo not shown) [Example 2-4, 2-[1-(4-chlorophenyl)ethyl]-7-(4-fluoropiperidin-1-yl)-5-methylpyrazolo[1,5-a]pyrimidine]",128 nM
15,"Cc1cc(N2CCCC(C(N)=O)C2)n2nc(Cc3ccc(Cl)cc3)cc2n1 (stereo not shown) [Example 1-19, 1-[2-(4-chlorobenzyl)-5-methylpyrazolo[1,5-a]pyrimidin-7-yl]piperidine-3-carboxamide]",10000 nM
16,"Cc1cc(N2CCCCC2=O)n2nc(Cc3ccc(Cl)cc3)cc2n1 [Example 1-10, 1-[2-(4-chlorobenzyl)-5-methylpyrazolo[1,5-a]pyrimidin-7-yl]piperidin-2-one]",> 10000 nM
17,"Cc1cc(NC(C)(C)C)n2nc(C(C)c3ccc(Cl)cc3)cc2n1 (stereo not shown) [Example 2-8, N-tert-butyl-2-[1-(4-chlorophenyl)ethyl]-5-methylpyrazolo[1,5-a]pyrimidin-7-amine]",71 nM
18,"Cc1cc(N2CCC(F)(F)C2)n2nc(C(C)c3ccc(Cl)cn3)cc2n1 (stereo not shown) [Example 9-5, 2-[1-(5-chloropyridin-2-yl)ethyl]-7-(3,3-difluoropyrrolidin-1-yl)-5-methylpyrazolo[1,5-a]pyrimidine]",1660 nM
19,"Cc1cc(N[C@H](C)C(F)(F)F)n2nc(Cc3ccc(Cl)cc3)cc2n1 [Example 1-20, 2-(4-chlorobenzyl)-5-methyl-N-[(2R)-1,1,1-trifluoropropan-2-yl]pyrazolo[1,5-a]pyrimidin-7-amine]",2150 nM
20,"CC(=O)N[C@H]1CCN(c2cc(C)nc3cc(C(C)c4ccc(C(F)(F)F)cc4)nn23)C1 (stereo partly drawn) [Example 8-7, N-[(3S)-1-(5-methyl-2-{1-[4-(trifluoromethyl)phenyl]ethyl}pyrazolo[1,5-a]pyrimidin-7-yl)pyrrolidin-3-yl]acetamide]",2000 nM
21,"Cc1cc(N[C@H]2C[C@H](O)C2)n2nc(C(C)c3ccc(Cl)cc3)cc2n1 (relative stereo) [Example 2-19, trans-3-({2-[1-(4-chlorophenyl)ethyl]-5-methylpyrazolo[1,5-a]pyrimidin-7-yl}amino)cyclobutanol]",1310 nM
22,"CC(=O)N[C@H]1CCN(c2cc(C)nc3cc(Cc4ccc(Cl)cc4)nn23)C1 [Example 1-17, N-{(3S)-1-[2-(4-chlorobenzyl)-5-methylpyrazolo[1,5-a]pyrimidin-7-yl]pyrrolidin-3-yl}acetamide]",> 10000 nM
23,"Cc1cc(N2CCCC2)n2nc(Cc3ccc(Cl)cc3)cc2n1 [Example 1-12, 2-(4-chlorobenzyl)-5-methyl-7-(pyrrolidin-1-yl)pyrazolo[1,5-a]pyrimidine]",3970 nM
24,"Cc1cc(NC2(C)CC2)n2nc(Cc3ccc(Cl)cc3)cc2n1 [Example 1-3, 2-(4-chlorobenzyl)-5-methyl-N-(1-methylcyclopropyl)pyrazolo[1,5-a]pyrimidin-7-amine]",2550 nM
25,"CC(=O)N[C@@H]1CCN(c2cc(C)nc3cc(C(C)c4ccc(C(F)(F)F)cc4)nn23)C1 (stereo partly drawn) [Example 8-16, N-[(3R)-1-(5-methyl-2-{1-[4-(trifluoromethyl)phenyl]ethyl}pyrazolo[1,5-a]pyrimidin-7-yl)pyrrolidin-3-yl]acetamide]",2180 nM
